This is an account of results in ChEMBL document CHEMBL1130782, “Syntheses and evaluation of benzodiazaborine compounds against M. tuberculosis H37Rv in vitro” (1998).

In brackets after ≈: the same amount, converted by molar mass. A value given as a limit tells only on which side of the number the result lay.

Common to all, as to type: functional
Test [1] deals with Mycobacterium tuberculosis. The test can be described thus: Compound was tested in vitro for growth inhibition activity against Mycobacterium tuberculosis H37Rv in Bactec 6A media.
For test [2], the system named is Mycobacterium tuberculosis. The test can be described thus: Compound was tested in vitro for growth inhibition activity against Mycobacterium tuberculosis H37Rv in Bactec 12B media.
Test [3] has as its system Escherichia coli. The test can be described thus: Compound was tested in vitro for growth inhibition activity against Escherichia coli.

As usually defined, the MIC is the smallest concentration in the dilution series that meets the test's criterion for growth inhibition. Read a high MIC as weaker potency. For the compound `CCCCN1B(O)c2ccccc2NC1=O`, the MIC in test [1] and in test [2] was more than 587 µM throughout.

Turning to `NCCOB(c1ccccc1)c1ccccc1`, the MIC in test [1] was 71 µM (≈ 16 µg/mL); in test [2], 285 µM (≈ 64.2 µg/mL).

As for `NNC(=O)c1ccncc1` [ISONIAZID], the MIC in test [1] is less than 0.02 µM; in test [2] it was less than 0.16 µM.

`OB1N=C(c2cnccn2)Nc2ccccc21`: the MIC in test [1] and in test [2] was more than 572 µM each time.

`OB1c2ccccc2N=C(S)N1c1cccnc1`: the minimum inhibitory concentration (MIC) in test [1] turned out to be 31.4 µM (≈ 8.01 µg/mL); in test [2], 63 µM (≈ 16.1 µg/mL).

For `Cc1ccc(S(=O)(=O)N2N=Cc3ccccc3B2O)cc1`, the figures for the MIC in test [1], in test [2] and in test [3] were 40 µM (≈ 12 µg/mL), 320 µM (≈ 96 µg/mL) and 83 µM (≈ 24.9 µg/mL), respectively.

Turning to `NC(=O)c1cnccn1` [PYRAZINAMIDE], the MIC was 1600 µM (≈ 197 µg/mL) in test [1] and more than 1600 µM in test [2].

On to `O=C1Nc2ccccc2B(O)N1c1ccccc1`, for which the MIC in test [1] was found to be 33.6 µM (≈ 8 µg/mL); in test [2] it was 67.2 µM (≈ 16 µg/mL).
